Consider 20 molecules from patent US9676782B2, “Substituted pyrazolo[1,5-a]pyrazines as negative allosteric modulators of metabotropic glutamate receptor 3” (Vanderbilt University, priority 2014, dated 2017).

pEC50, pIC50: −log10 of the molar value. Like-named read-outs stand apart in the source and are kept apart here.

The target of one test is rat mGlu5 (Rattus norvegicus (Rat), UniProt P31424). In words: mGlu5 Ca2+ flux assay. In kind it is cell-based. As to conditions: for Fold selectivity (mGlu3 vs. mGlu5): ratio of rat mGlu5 EC50 or IC50 to rat mGlu3 IC50; for Emax at 30 µM: read-out: rat mGlu5 Glu max (%). An outline of the steps:
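Transfected cells grown overnight at 37° C/5% CO2, dye-loaded, then 5 min in assay buffer at RT before Ca2+ flux read on FDSS7000. Fluorescence as F/F0 fold over basal, normalized to maximal glutamate response; EC50 from unconstrained 4-parameter logistic fit, triplicates weighted evenly.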

A further test has as its target rat mGlu3 (Rattus norvegicus (Rat), UniProt P31422). As to the kind of experiment: mGlu3 Ca2+ flux assay. In kind it is cell-based. Conditions: for remaining activity at 30 µM: amplitude of response at 30 μM test compound as % of maximal response to glutamate, read-out: rat mGlu3 Glu max (%); for mGlu3 Glu max: response at 30 μM compound as percentage of maximal glutamate response. An outline of the steps:
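Cells expressing rat mGlu3 were grown overnight at 37° C. under 5% CO2, then loaded with dye. After dye removal they received 20 μL of assay buffer and sat 10 minutes at room temperature. Calcium flux was read on a Hamamatsu FDSS7000, and fluorescence was expressed as fold over basal and normalized to the maximal glutamate response.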

[1] abbreviates: read-out: rat mGlu5 EC50 or IC50.
Where [2] appears, read: NAM potency, decrease of glutamate EC80 response, >30,000 = no measurable activity, >10,000 = no plateau, read-out: rat mGlu3 IC50.
[3] abbreviates: PAM, amplitude of response at 30 μM test compound as % of maximal response to glutamate.

Sequence of rat mGlu3 (P31422 23-879): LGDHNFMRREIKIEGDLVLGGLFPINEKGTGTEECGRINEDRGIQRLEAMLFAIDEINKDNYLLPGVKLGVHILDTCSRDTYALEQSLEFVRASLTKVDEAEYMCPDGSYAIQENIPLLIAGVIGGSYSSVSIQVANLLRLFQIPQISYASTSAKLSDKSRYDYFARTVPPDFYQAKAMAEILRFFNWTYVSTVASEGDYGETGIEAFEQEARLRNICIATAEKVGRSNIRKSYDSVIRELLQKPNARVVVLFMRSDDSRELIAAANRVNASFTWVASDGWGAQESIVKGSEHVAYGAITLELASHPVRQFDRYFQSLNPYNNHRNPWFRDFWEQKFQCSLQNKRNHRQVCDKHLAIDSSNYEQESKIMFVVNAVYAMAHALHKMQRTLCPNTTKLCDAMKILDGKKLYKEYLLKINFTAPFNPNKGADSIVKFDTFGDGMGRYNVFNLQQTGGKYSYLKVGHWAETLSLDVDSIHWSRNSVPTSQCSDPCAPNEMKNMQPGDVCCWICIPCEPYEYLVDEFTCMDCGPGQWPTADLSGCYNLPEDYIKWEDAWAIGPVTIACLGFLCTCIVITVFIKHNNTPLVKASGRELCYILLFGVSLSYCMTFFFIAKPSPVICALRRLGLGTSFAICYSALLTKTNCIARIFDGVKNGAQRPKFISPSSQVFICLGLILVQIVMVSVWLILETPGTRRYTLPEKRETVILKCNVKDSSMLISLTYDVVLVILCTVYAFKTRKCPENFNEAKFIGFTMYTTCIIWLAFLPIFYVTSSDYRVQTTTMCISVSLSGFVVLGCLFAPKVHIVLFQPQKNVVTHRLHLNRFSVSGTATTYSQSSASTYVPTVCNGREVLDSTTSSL
Sequence of rat mGlu5 (P31424 21-1203): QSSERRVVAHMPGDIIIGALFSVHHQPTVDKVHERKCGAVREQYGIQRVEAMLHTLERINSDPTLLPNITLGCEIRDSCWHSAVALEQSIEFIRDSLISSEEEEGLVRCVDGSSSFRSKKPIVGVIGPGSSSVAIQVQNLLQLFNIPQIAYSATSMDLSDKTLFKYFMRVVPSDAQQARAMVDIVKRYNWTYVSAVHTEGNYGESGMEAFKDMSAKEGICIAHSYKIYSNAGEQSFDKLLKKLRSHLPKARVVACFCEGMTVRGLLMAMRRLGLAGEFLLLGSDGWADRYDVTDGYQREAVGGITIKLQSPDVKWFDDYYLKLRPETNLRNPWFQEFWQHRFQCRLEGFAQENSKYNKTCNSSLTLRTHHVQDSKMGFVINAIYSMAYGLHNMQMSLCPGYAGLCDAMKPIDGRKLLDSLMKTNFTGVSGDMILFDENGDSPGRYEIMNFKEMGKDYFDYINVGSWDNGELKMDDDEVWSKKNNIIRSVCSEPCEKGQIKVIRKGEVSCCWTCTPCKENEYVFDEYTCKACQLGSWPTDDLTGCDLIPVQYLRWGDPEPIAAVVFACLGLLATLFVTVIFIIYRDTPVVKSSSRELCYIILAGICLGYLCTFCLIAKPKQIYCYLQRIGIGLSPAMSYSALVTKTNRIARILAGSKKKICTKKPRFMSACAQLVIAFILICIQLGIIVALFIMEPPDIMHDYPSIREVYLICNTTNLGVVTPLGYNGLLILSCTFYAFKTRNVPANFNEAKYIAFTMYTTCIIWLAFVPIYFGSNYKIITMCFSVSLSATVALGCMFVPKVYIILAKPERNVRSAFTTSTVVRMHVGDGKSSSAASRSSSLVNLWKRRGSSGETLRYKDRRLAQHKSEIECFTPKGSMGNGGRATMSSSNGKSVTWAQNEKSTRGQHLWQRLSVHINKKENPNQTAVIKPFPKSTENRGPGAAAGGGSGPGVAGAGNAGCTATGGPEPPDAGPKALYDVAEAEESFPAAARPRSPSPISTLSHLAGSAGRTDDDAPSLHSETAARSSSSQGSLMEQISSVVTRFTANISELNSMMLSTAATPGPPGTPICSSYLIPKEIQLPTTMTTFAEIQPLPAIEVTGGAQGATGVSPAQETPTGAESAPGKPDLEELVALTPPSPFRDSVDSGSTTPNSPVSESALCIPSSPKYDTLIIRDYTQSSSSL

Regarding `COc1ccc(N(C)Cc2cc3n(n2)CCN(c2ccc(F)cn2)C3=O)cc1` [Compound 122, 5-(5-fluoropyridin-2-yl)-2-(((4-methoxyphenyl)(methyl)amino)methyl)-6,7-dihydropyrazolo[1,5-a]pyrazin-4(5H)-one], at rat mGlu5, the “Fold selectivity (mGlu3 vs. mGlu5)” value is reported as greater than 26. Besides, the pEC50 on rat mGlu5 (setting [1]) is less than 4.52. The pIC50 on rat mGlu3 (setting [2]) was 5.94. Moreover, the remaining activity at 30 µM at rat mGlu3 is 1.4%.

Take `O=C1c2cc(CNc3ccccn3)nn2CCN1c1ccc(F)cc1` [Compound 156, 5-(4-fluorophenyl)-2-((pyridin-2-ylamino)methyl)-6,7-dihydropyrazolo[1,5-a]pyrazin-4(5H)-one]: the pIC50 at rat mGlu5 (compound noted as NAM or partial antagonist (PAnt) at mGlu5, glutamate EC80, read-out: rat mGlu5 EC50 or IC50) is less than 5.00; on rat mGlu3 (setting [2]), 5.50. At rat mGlu5 (compound noted as NAM or partial antagonist (PAnt) at mGlu5, response at 30 μM as % of maximal glutamate response), the Emax at 30 µM is 49.1%. In addition, on rat mGlu5, the “Fold selectivity (mGlu3 vs. mGlu5)” value was greater than 3.1. Moreover, the remaining activity at 30 µM on rat mGlu3 is -1.17%.

With `COc1ccc(N(C)Cc2cc3n(n2)CCN(c2ccc(Cl)cn2)C3=O)cc1` [Compound 124, 5-(5-chloropyridin-2-yl)-2-(((4-methoxyphenyl)(methyl)amino)methyl)-6,7-dihydropyrazolo[1,5-a]pyrazin-4(5H)-one], the “Fold selectivity (mGlu3 vs. mGlu5)” value at rat mGlu5 is reported as greater than 32. The pEC50 on rat mGlu5 (setting [1]) is less than 4.52. Also, the pIC50 at rat mGlu3 (setting [2]) is 6.04. On rat mGlu3, the remaining activity at 30 µM is 1.64%.

Turning to `O=C1c2cc(CNc3ccc(Cl)cc3F)nn2CCN1c1ccc(F)cc1` [Compound 34, 2-(((4-chloro-2-fluorophenyl)amino)methyl)-5-(4-fluorophenyl)-6,7-dihydropyrazolo[1,5-a]pyrazin-4(5H)-one], at rat mGlu5, the “Fold selectivity (mGlu3 vs. mGlu5)” value is reported as greater than 35. Besides, the pEC50 at rat mGlu5 (setting [1]) is less than 4.52. Further, the pIC50 at rat mGlu3 (setting [2]) is 6.07. On rat mGlu3, the remaining activity at 30 µM was 3.18%.

In the case of `C[C@H]1CN(c2ccc(F)cc2)C(=O)c2cc(CNc3cc(F)ccc3F)nn21` [Compound 71, (S)-2-(((2,5-difluorophenyl)amino)methyl)-5-(4-fluorophenyl)-7-methyl-6,7-dihydropyrazolo[1,5-a]pyrazin-4(5H)-one], the Emax at 30 µM on rat mGlu5 (setting [3]) came to 76.6%. The “Fold selectivity (mGlu3 vs. mGlu5)” value on rat mGlu5 came out at 7.33. Besides, the pEC50 on rat mGlu5 (setting [1]) was 5.02. The pIC50 at rat mGlu3 (setting [2]) was 5.88. Also, at rat mGlu3, the remaining activity at 30 µM stood at 1.6%.

For `C[C@H]1CN(c2ccc(F)cc2)C(=O)c2cc(CNc3ccccc3F)nn21` [Compound 43, (S)-5-(4-fluorophenyl)-2-(((2-fluorophenyl)amino)methyl)-7-methyl-6,7-dihydropyrazolo[1,5-a]pyrazin-4(5H)-one], the Emax at 30 µM on rat mGlu5 (setting [3]) came out at 90.6%. In addition, on rat mGlu5, the “Fold selectivity (mGlu3 vs. mGlu5)” value is given as 2.06. The pEC50 at rat mGlu5 (setting [1]) was 5.28. In addition, at rat mGlu3 (setting [2]), the pIC50 is 5.60. The remaining activity at 30 µM at rat mGlu3 was 1.61%.

As for `CN(Cc1cc2n(n1)CCN(c1ccc(F)cc1)C2=O)c1ccccc1` [drawing 29 X = NMe], the pEC50 on rat mGlu5 (Table 2 compounds with X = NMe, read-out: mGlu5 EC50) was less than 4.52. Moreover, on rat mGlu3 (Table 2 compounds with X = NMe, read-out: mGlu3 IC50), the pIC50 was 5.91. Further, the “mGlu3 Glu max” value on rat mGlu3 (Table 2 compounds with X = NMe) was 1%.

`C[C@@H]1CN(c2ccc(F)cc2)C(=O)c2cc(CNc3ccc(Cl)cc3)nn21` [Compound 60, (R)-2-(((4-chlorophenyl)amino)methyl)-5-(4-fluorophenyl)-7-methyl-6,7-dihydropyrazolo[1,5-a]pyrazin-4(5H)-one]: at rat mGlu5 (setting [3]), the Emax at 30 µM was determined as 31.5%. In addition, the “Fold selectivity (mGlu3 vs. mGlu5)” value on rat mGlu5 was greater than 8.0. Further, the pEC50 on rat mGlu5 (setting [1]) was less than 5.00. The pIC50 at rat mGlu3 (setting [2]) is 5.90. Moreover, the remaining activity at 30 µM at rat mGlu3 was 0.56%.

For the molecule `O=C1c2cc(CNc3ncccc3C(F)(F)F)nn2CCN1c1ccc(F)cc1` [Compound 162, 5-(4-fluorophenyl)-2-(((3-(trifluoromethyl)pyridin-2-yl)amino)methyl)-6,7-dihydropyrazolo[1,5-a]pyrazin-4(5H)-one], at rat mGlu5, the “Fold selectivity (mGlu3 vs. mGlu5)” value is on record as greater than 7.8. Also, the pEC50 at rat mGlu5 (setting [1]) was less than 4.52. For the same molecule, on rat mGlu3 (setting [2]), the pIC50 is 5.42. Further, the remaining activity at 30 µM at rat mGlu3 was found to be 0.79%.

For `Cc1cc(NCc2cc3n(n2)CCN(c2ccc(F)cc2)C3=O)ccc1F` [Compound 36, 2-(((4-fluoro-3-methylphenyl)amino)methyl)-5-(4-fluorophenyl)-6,7-dihydropyrazolo[1,5-a]pyrazin-4(5H)-one], the “Fold selectivity (mGlu3 vs. mGlu5)” value at rat mGlu5 is greater than 17. For the same molecule, the pEC50 on rat mGlu5 (setting [1]) was less than 4.52. The pIC50 at rat mGlu3 (setting [2]) was 5.78. Besides, the remaining activity at 30 µM at rat mGlu3 amounted to 1.91%.

`COc1ccc(N(C)Cc2cc3n(n2)CCN(c2ccccc2Cl)C3=O)cc1` [Compound 100, 5-(2-chlorophenyl)-2-(((4-methoxyphenyl)(methyl)amino)methyl)-6,7-dihydropyrazolo[1,5-a]pyrazin-4(5H)-one]: the “Fold selectivity (mGlu3 vs. mGlu5)” value on rat mGlu5 is greater than 38. Besides, the pEC50 on rat mGlu5 (setting [1]) was less than 4.52. Also, at rat mGlu3 (setting [2]), the pIC50 was 6.11. For the same molecule, the remaining activity at 30 µM on rat mGlu3 was 1.8%.

Turning to `C[C@@H]1CN(c2ccc(F)cc2)C(=O)c2cc(CNc3cccc(F)c3F)nn21` [Compound 68, (R)-2-(((2,3-difluorophenyl)amino)methyl)-5-(4-fluorophenyl)-7-methyl-6,7-dihydropyrazolo[1,5-a]pyrazin-4(5H)-one], at rat mGlu5 (setting [3]), the Emax at 30 µM turned out to be 53.2%. For the same molecule, the “Fold selectivity (mGlu3 vs. mGlu5)” value at rat mGlu5 is greater than 8.1. Moreover, the pEC50 on rat mGlu5 (setting [1]) was less than 5.00. The negative logarithm of the IC50 (pIC50) at rat mGlu3 (setting [2]) is 5.91. Further, the remaining activity at 30 µM at rat mGlu3 was found to be 2.68%.

Turning to `COc1ccc(N(C)Cc2cc3n(n2)CCN(c2cc(F)ccc2F)C3=O)cc1` [Compound 106, 5-(2,5-difluorophenyl)-2-(((4-methoxyphenyl)(methyl)amino)methyl)-6,7-dihydropyrazolo[1,5-a]pyrazin-4(5H)-one], the “Fold selectivity (mGlu3 vs. mGlu5)” value on rat mGlu5 is reported as greater than 29. Moreover, the pEC50 at rat mGlu5 (setting [1]) is less than 4.52. The remaining activity at 30 µM at rat mGlu3 was found to be 0.79%. The pIC50 on rat mGlu3 (read-out: rat mGlu3 IC50) is 5.99.

As for `O=C1c2cc(CNc3cccc(C(F)(F)F)n3)nn2CCN1c1ccc(F)cc1` [Compound 166, 5-(4-fluorophenyl)-2-(((6-(trifluoromethyl)pyridin-2-yl)amino)methyl)-6,7-dihydropyrazolo[1,5-a]pyrazin-4(5H)-one], at rat mGlu5 (setting [3]), the Emax at 30 µM was 50.6%. Further, the “Fold selectivity (mGlu3 vs. mGlu5)” value at rat mGlu5 is greater than 4.2. On rat mGlu5 (setting [1]), the pEC50 was less than 5.00. The pIC50 at rat mGlu3 (setting [2]) is 5.63. Besides, the remaining activity at 30 µM on rat mGlu3 stood at 2.06%.

Turning to `COc1ccc(N(C)Cc2cc3n(n2)CCN(c2ccc(Cl)c(F)c2)C3=O)cc1` [Compound 136, 5-(4-chloro-3-fluorophenyl)-2-(((4-methoxyphenyl)(methyl)amino)methyl)-6,7-dihydropyrazolo[1,5-a]pyrazin-4(5H)-one], the “Fold selectivity (mGlu3 vs. mGlu5)” value on rat mGlu5 was greater than 23. Besides, the pEC50 on rat mGlu5 (setting [1]) is less than 4.52. For the same molecule, the pIC50 at rat mGlu3 (setting [2]) is 5.90. For the same molecule, the remaining activity at 30 µM at rat mGlu3 stood at 2.43%.

With `O=C1c2cc(CNc3cccc(F)c3)nn2CCN1c1ccc(F)cc1` [drawing 31 X = NH], the pEC50 on rat mGlu5 (Table 2 compounds with X = NH, read-out: mGlu5 EC50) was 5.66. Further, the “mGlu5 Glu max” value at rat mGlu5 (Table 2 compounds with X = NH, response at 30 μM compound as percentage of maximal glutamate response) stood at 99%. Moreover, the pIC50 on rat mGlu3 (Table 2 compounds with X = NH, read-out: mGlu3 IC50) is 5.98. The “mGlu3 Glu max” value at rat mGlu3 (Table 2 compounds with X = NH) stood at 1%.

For the molecule `C[C@H]1CN(c2ccc(F)cc2)C(=O)c2cc(CNc3ccc(CC#N)cc3)nn21` [Compound 67, (S)-2-(4-(((5-(4-fluorophenyl)-7-methyl-4-oxo-4,5,6,7-tetrahydropyrazolo[1,5-a]pyrazin-2-yl)methyl)amino)phenyl)acetonitrile], the “Fold selectivity (mGlu3 vs. mGlu5)” value at rat mGlu5 is recorded as greater than 11. Also, the pEC50 at rat mGlu5 (setting [1]) was less than 4.52. On rat mGlu3 (setting [2]), the pIC50 is 5.59. For the same molecule, on rat mGlu3, the remaining activity at 30 µM came to 1.96%.

Regarding `Cc1nc(N2CCn3nc(CNc4ccc(OC(F)F)cc4F)cc3C2=O)cs1` [Compound 140, 2-(((4-(difluoromethoxy)-2-fluorophenyl)amino)methyl)-5-(2-methylthiazol-4-yl)-6,7-dihydropyrazolo[1,5-a]pyrazin-4(5H)-one], the “Fold selectivity (mGlu3 vs. mGlu5)” value on rat mGlu5 is on record as greater than 48. For the same molecule, the pEC50 on rat mGlu5 (setting [1]) is less than 4.52. In addition, the pIC50 on rat mGlu3 (setting [2]) was 6.20. At rat mGlu3, the remaining activity at 30 µM was found to be 2.43%.

For `COc1ccc(N(C)Cc2cc3n(n2)CCN(c2ccc(C)cc2F)C3=O)cc1` [Compound 108, 5-(2-fluoro-4-methylphenyl)-2-(((4-methoxyphenyl)(methyl)amino)methyl)-6,7-dihydropyrazolo[1,5-a]pyrazin-4(5H)-one], the “Fold selectivity (mGlu3 vs. mGlu5)” value at rat mGlu5 is greater than 24. Further, at rat mGlu5 (setting [1]), the pEC50 is less than 4.52. Also, the pIC50 at rat mGlu3 (setting [2]) was 5.90. On rat mGlu3, the remaining activity at 30 µM turned out to be 0.97%.

For `COc1ccc(N(C)Cc2cc3n(n2)CCN(c2ccccc2C#N)C3=O)cc1` [Compound 112, 2-(2-(((4-methoxyphenyl)(methyl)amino)methyl)-4-oxo-6,7-dihydropyrazolo[1,5-a]pyrazin-5(4H)-yl)benzonitrile], the “Fold selectivity (mGlu3 vs. mGlu5)” value on rat mGlu5 is reported as greater than 7.9. Further, the pEC50 on rat mGlu5 (setting [1]) is less than 4.52. Further, the pIC50 on rat mGlu3 (setting [2]) was 5.42. Besides, the remaining activity at 30 µM on rat mGlu3 amounted to 1.1%.
